Relative viability data for six cell lines are collected here from the supplement of paper PMC10307832.

Holding throughout (assay): relative viability (nuclei count vs DMSO), 5 days (fraction); higher = more cells survive
Compound in test [1]: C/C(=N\NC(=S)N1CCC1)/C2=CC=CC=N2 + Nc1ncn([C@H]2C[C@H](O)[C@@H](CO)O2)c(=O)n1 [Decitabine] (partner 2 µM)
In outline: (§1)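 Lung cancer cell lines were pin-tool dosed in 1536-well plates on the day after seeding, with either a lone drug or a fixed anchor-drug dose plus five library-drug doses (not always all listed) in √10 steps. Nuclei were counted on 4× images after 5 days. Relative viability is the ratio of treated-well to vehicle-well nuclei counts, with each value a median of duplicate plates.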

Compound in test [2]: C/C(=N\NC(=S)N1CCC1)/C2=CC=CC=N2 + CS(=O)(=O)CCNCc1ccc(-c2ccc3ncnc(Nc4ccc(OCc5cccc(F)c5)c(Cl)c4)c3c2)o1 [Lapatinib] (partner 2 µM)
In outline:
as §1

Compound in test [3]: C/C(=N\NC(=S)N1CCC1)/C2=CC=CC=N2 + CCNC(=O)c1noc(-c2cc(C(C)C)c(O)cc2O)c1-c1ccc(CN2CCOCC2)cc1 [Luminespib] (partner 0.01 µM)
In outline: as §1

Compound in test [4]: C/C(=N\NC(=S)N1CCC1)/C2=CC=CC=N2 + O=C(c1cc(Cc2n[nH]c(=O)c3ccccc23)ccc1F)N1CCN(C(=O)C2CC2)CC1 [Olaparib] (partner 8 µM)
A digest of the protocol: as §1

Consider H3255, for which the relative viability in test [1] (first compound 0.05 µM) was determined as 0.211; in test [1] (first compound 0.1581 µM), 0.231; in test [1] (first compound 0.5 µM) it was 0.24; in test [1] (first compound 1.581 µM), 0.209; in test [1] (first compound 5 µM) it was 0.228; in test [2] (first compound 0.05 µM), 0.255. The relative viability was found to be 0.218 in test [2] (first compound 0.1581 µM); 0.14 in test [2] (first compound 0.5 µM); 0.157 in test [2] (first compound 1.581 µM); 0.184 in test [2] (first compound 5 µM); 0.21 in test [3] (first compound 0.05 µM); 0.262 in test [3] (first compound 0.1581 µM). Besides, the relative viability in test [3] (first compound 0.5 µM) worked out at 0.232; in test [3] (first compound 1.581 µM), 0.176; in test [3] (first compound 5 µM), 0.302; in test [4] (first compound 0.05 µM), 0.353; in test [4] (first compound 0.1581 µM) it was 0.321; in test [4] (first compound 0.5 µM), 0.292. Besides, the relative viability in test [4] (first compound 1.581 µM) was found to be 0.235; in test [4] (first compound 5 µM) it was 0.254.

For the cell line LXF-289, the relative viability in test [1] (first compound 0.05 µM) stood at 0.274; in test [1] (first compound 0.1581 µM), 0.356; in test [1] (first compound 0.5 µM), 0.198; in test [1] (first compound 1.581 µM), 0.236; in test [1] (first compound 5 µM), 0.158; in test [2] (first compound 0.05 µM) it was 0.322. Moreover, the relative viability in test [2] (first compound 0.1581 µM) stood at 0.278; in test [2] (first compound 0.5 µM), 0.275; in test [2] (first compound 1.581 µM), 0.24; in test [2] (first compound 5 µM), 0.14; in test [3] (first compound 0.05 µM), 0.169; in test [3] (first compound 0.1581 µM), 0.132. Besides, the relative viability amounted to 0.177 in test [3] (first compound 0.5 µM); 0.153 in test [3] (first compound 1.581 µM); 0.126 in test [3] (first compound 5 µM); 0.382 in test [4] (first compound 0.05 µM); 0.647 in test [4] (first compound 0.1581 µM); 0.175 in test [4] (first compound 0.5 µM). In addition, the relative viability worked out at 0.176 in test [4] (first compound 1.581 µM) and 0.0913 in test [4] (first compound 5 µM).

UMC-11: the relative viability is 0.446 in test [1] (first compound 0.05 µM); 0.2 in test [1] (first compound 0.1581 µM); 0.261 in test [1] (first compound 0.5 µM); 0.273 in test [1] (first compound 1.581 µM); 0.2 in test [1] (first compound 5 µM); 0.201 in test [2] (first compound 0.05 µM). Further, the relative viability in test [2] (first compound 0.1581 µM) was 0.195; in test [2] (first compound 0.5 µM), 0.165; in test [2] (first compound 1.581 µM), 0.145; in test [2] (first compound 5 µM), 0.134; in test [3] (first compound 0.05 µM), 0.207; in test [3] (first compound 0.1581 µM), 0.194. Moreover, the relative viability in test [3] (first compound 0.5 µM) is 0.199; in test [3] (first compound 1.581 µM), 0.184; in test [3] (first compound 5 µM) it was 0.176; in test [4] (first compound 0.05 µM), 0.163; in test [4] (first compound 0.1581 µM), 0.122; in test [4] (first compound 0.5 µM) it was 0.137. Besides, the relative viability came out at 0.131 in test [4] (first compound 1.581 µM) and 0.106 in test [4] (first compound 5 µM).

Consider LC-2-ad, for which the relative viability in test [1] (first compound 0.05 µM) came to 0.267; in test [1] (first compound 0.1581 µM), 0.244; in test [1] (first compound 0.5 µM) it was 0.204; in test [1] (first compound 1.581 µM), 0.227; in test [1] (first compound 5 µM), 0.22; in test [2] (first compound 0.05 µM), 0.113. Also, the relative viability in test [2] (first compound 0.1581 µM) was 0.122; in test [2] (first compound 0.5 µM), 0.106; in test [2] (first compound 1.581 µM), 0.112; in test [2] (first compound 5 µM), 0.122; in test [3] (first compound 0.05 µM) it was 0.269; in test [3] (first compound 0.1581 µM), 0.273. Besides, the relative viability in test [3] (first compound 0.5 µM) worked out at 0.252; in test [3] (first compound 1.581 µM), 0.219; in test [3] (first compound 5 µM) it was 0.247; in test [4] (first compound 0.05 µM), 0.234; in test [4] (first compound 0.1581 µM) it was 0.21; in test [4] (first compound 0.5 µM) it was 0.199. Besides, the results for the relative viability in test [4] (first compound 1.581 µM) and in test [4] (first compound 5 µM) were 0.196 and 0.2, respectively.

As for SK-MES-1, the relative viability in test [1] (first compound 0.05 µM) is 0.193; in test [1] (first compound 0.1581 µM), 0.186; in test [1] (first compound 0.5 µM), 0.171; in test [1] (first compound 1.581 µM), 0.142; in test [1] (first compound 5 µM), 0.19; in test [2] (first compound 0.05 µM), 0.301. Besides, the relative viability in test [2] (first compound 0.1581 µM) was 0.293; in test [2] (first compound 0.5 µM) it was 0.213; in test [2] (first compound 1.581 µM), 0.185; in test [2] (first compound 5 µM), 0.2; in test [3] (first compound 0.05 µM), 0.169; in test [3] (first compound 0.1581 µM) it was 0.155. Further, the relative viability was found to be 0.175 in test [3] (first compound 0.5 µM); 0.152 in test [3] (first compound 1.581 µM); 0.189 in test [3] (first compound 5 µM); 0.198 in test [4] (first compound 0.05 µM); 0.213 in test [4] (first compound 0.1581 µM); 0.162 in test [4] (first compound 0.5 µM). Also, the relative viability in test [4] (first compound 1.581 µM) amounted to 0.174; in test [4] (first compound 5 µM), 0.164.

As to A-427, the relative viability in test [1] (first compound 0.05 µM) was found to be 0.182; in test [1] (first compound 0.1581 µM) it was 0.214; in test [1] (first compound 0.5 µM), 0.194; in test [1] (first compound 1.581 µM) it was 0.171; in test [1] (first compound 5 µM), 0.17; in test [2] (first compound 0.05 µM) it was 0.138. Also, the relative viability came out at 0.149 in test [2] (first compound 0.1581 µM); 0.138 in test [2] (first compound 0.5 µM); 0.115 in test [2] (first compound 1.581 µM); 0.139 in test [2] (first compound 5 µM); 0.153 in test [3] (first compound 0.05 µM); 0.147 in test [3] (first compound 0.1581 µM). The relative viability in test [3] (first compound 0.5 µM) was found to be 0.139; in test [3] (first compound 1.581 µM) it was 0.155; in test [3] (first compound 5 µM) it was 0.155; in test [4] (first compound 0.05 µM), 0.2; in test [4] (first compound 0.1581 µM), 0.191; in test [4] (first compound 0.5 µM), 0.151. Also, the relative viability in test [4] (first compound 1.581 µM) came out at 0.154; in test [4] (first compound 5 µM) it was 0.167.
